The results in this text go back to a melting point compilation (Tetko et al.; mined from patent text by program, amines drawn as free bases though some values may be those of a salt).

By melting point is commonly meant the temperature, or range, at which the solid turns liquid. `CCc1c(CC(=O)NCCCCCCNC(=O)Cc2ccc([N+](=O)[O-])cc2)ccc(OC)c1OC` registered a melting point of 146 to 148 °C. With `COC(=O)Nc1cn2cccc(Sc3ccccc3)c2n1` the figure was 169 to 171 °C; with `CCOC(=O)c1cc(S(N)(=O)=O)c(Cl)cc1Cl`, 119 to 122 °C.

In turn, `O=c1c2cccc3c2n(c(=O)n1CCO)-c1cc(C(F)(F)F)ccc1S3` registered a melting point of 90 to 93 °C. To `CC(COc1ccc2ccc(Oc3c(F)cc(C(F)(F)F)cc3Cl)cc2c1)=NO` belongs 153 °C; to `CCCCCCCCC(SCCCCCC)C(=O)Nc1c(Cl)cc(NC(C)=O)c2ncc(C)cc12` (centres undefined), 140 to 141 °C. To `CN1CCC2(CC1)c1ccccc1C(C)(O)c1c(O)cccc12` (centres undefined) belongs 151 to 154 °C; to `CCOc1cc([N+](=O)[O-])c(N)cc1C(=O)OC`, 156 to 157 °C; to `CN1CC2=C(n3cncc3C1)S(=O)C=C2` (centres undefined), 160 to 163 °C. `CC(C)COC(=O)Nc1ccc(C2(O)CCSCC2)cc1`: the melting point was 150 to 151 °C. In turn, `COc1cc(OC)nc(NC(=O)NS(=O)(=O)c2ccccc2C(C)=O)n1` displayed a melting point of 126 to 128 °C. Molecule `COC(=O)c1ccc(C(=O)NS(=O)(=O)c2ccc(C(=O)NCCc3ccccc3OC)cc2)cn1` yielded a melting point of 220 to 222 °C. `CN(C)c1ccc(-n2c(CC(=O)O)c(C(=O)O)c3cc(Oc4ccc(C(F)(F)F)cc4)ccc32)cc1` returned a melting point of 235 to 237 °C. As to `Cc1cc(C=CC#N)cc(C(=O)c2[nH]c(=O)[nH]c(=O)c2C(C)C)c1`, the melting point was 233 to 235 °C. Turning to `COC(=O)c1cncc(-c2ccc(OC)c([N+](=O)[O-])c2)c1`, the melting point lay in the range of 192 to 194 °C. The molecule `O=CNn1cnc2cc(C(F)(F)F)ccc21` gave a melting point of 209 to 210 °C. `NS(=O)(=O)c1ccc(OC2CCCCO2)s1` (centres undefined) displayed a melting point of 90 to 92 °C. To `O=[N+]([O-])c1cc(O)c(Br)cc1F` belongs 124 to 126 °C. Molecule `COc1ccc(Nc2nc(NC3CCCCCC3)nc(Oc3ccccc3I)n2)cc1Cl` displayed a melting point of 206 to 208 °C. `COc1cc(C(=O)NS(=O)(=O)c2ccccc2Cl)ccc1Cn1cc(CCC(=O)N(C)C)c2ccc(CCC(=O)N(C)C)cc21` returned a melting point of 134 to 137 °C. With `CCCCOc1cc2c(cc1C(=O)NC)CC(N(CCC)CCC)C2` (centres undefined) the figure was 129 to 130 °C; with `O=[N+]([O-])c1cc(Br)cc2c1[nH]c1ccc(Br)cc12`, 252 to 256 °C; with `COc1c(C)c(=O)oc2cc(-c3nnc(C)s3)ccc12`, 177 °C. Consider `Cc1oc(-c2ccccc2)nc1CCOc1ccc(CC(C(N)=O)C(=O)O)cc1` (centres undefined), for which the melting point amounted to 138 °C. With `CCOC(=O)C(=CNN(C)C=O)C(=O)c1cc(F)c(F)c(F)c1F` the figure was 189 °C. To `O=C(O)C(=O)c1ccc(OCCOc2ccc3ccccc3c2)cc1Cl` belongs 152 to 153 °C; to `CC(=O)c1ccc2c(c1O)CC(S(C)(=O)=O)CO2` (centres undefined), 158 to 162 °C. On to `NC(=O)CNC(=O)c1cccc(-c2ccc(F)c3cc(Cc4ccc(F)c(F)c4)sc23)c1`, for which the melting point lay within 161 to 162 °C. For the molecule `CC(C(=O)O)c1cccc(S(=O)(=O)c2ccccc2Cl)c1O` (centres undefined), the melting point lay within 180 to 181 °C.

As to `Cc1cccc(-c2[nH]c(C(C)C)nc2-c2cccc(-c3ccc4c(c3)C(=O)CCS4(=O)=O)c2)n1`, the melting point lay within 115 to 119 °C. Turning to `CCOc1ccc(C2C(C(=O)c3ccc(C(C)C)cc3)=C(O)C(=O)N2c2ccc(C)nn2)nc1` (centres undefined), the melting point was in the range of 198 to 199 °C.

As for `COC(=O)C1Cc2c([nH]c3ccccc23)C(c2ccoc2)N1` (centres undefined), the melting point worked out at 130 °C. To `CCc1cccc(CC)c1NC(=O)c1c(C)oc(C)cc1=O` belongs 83.5 to 84.5 °C.

As for `COc1cc(NS(=O)(=O)c2cccc(C(F)(F)F)c2)cc(OC)c1`, the melting point was 78 to 81 °C.
